The subject of data set [1] is Fluc mRNA. As to the kind of experiment: Activity of lipid nanoparticles of formulation method 2, Fluc mRNA by intramuscular administration. It is filed as in vivo, BALB/c mice. As to the method: (§1) The formulation method was the same as the formulation method 1, except that the molar ratio of the amino lipid compounds to DSPC, cholesterol and PEG2000-DMG was 50:10:38.5:1.5.
(§2) 9 mice were assigned randomly to each group and injected with the lipid nanoparticles at a dosage of 0.5 mg/kg by three administration routes, i.e., subcutaneous, intramuscular and tail vein injection (three mice for each administration route). After 12 hours, D-luciferin potassium salt (200 μL, 10 mg/mL) was injected into each mouse through the tail vein. After 10 minutes, the total fluorescence intensity of each mouse was observed on a living imaging system (IVIS-200, Xenogen) and taken photographs for record. The expression intensities of Fluc mRNA delivered by representative amino lipid compounds through the three administration routes are shown in Table 2-4. MC3 was used as a control and SM102 was used as a comparative compound.
Preparation of Lipid Nanoparticles: LNPs were Prepared Using the Formulation Method 2 for Intramuscular Administration.
The measurement method was the same as that of Test Example 1.

Data set [2] relates to Fluc mRNA. As to the kind of experiment: In vivo delivery of luciferase mRNA (Fluc mRNA) by lipid nanoparticles, living imaging. The arrangement: species or system BALB/c mice. Conditions: after 12 hours, total fluorescence. Here is the method:
(§3) The amino lipid compounds of the present disclosure were mixed with DOPE, cholesterol, and PEG2000-DMG in a molar ratio of 45:10:42.5:2.5 and dissolved in absolute ethanol. By using a microinjection pump, the resultant ethanol solution and a sodium acetate solution (50 mM, pH=4.0) were mixed in a ratio of 1:3 in a microfluidic chip to prepare a crude solution of lipid nanoparticles, which were then dialyzed in 1×PBS at a controlled temperature of 4° C. for 6 h using a dialysis box (Fisher, MWCO 20,000), and filtered through a 0.22 μm microporous filter membrane before use.
as §1
The lipid nanoparticles prepared according to the above formulation method 1 or 2 were used in the biological experiments below for evaluating the performances of in vivo delivery of luciferase mRNA (Fluc mRNA). For the lipid nanoparticles obtained in the formulation method 1, the mass ratio of the amino lipid compounds to the luciferase mRNA was about 10:1, and the lipid nanoparticles were administered subcutaneously; and the lipid nanoparticles obtained in the formulation method 2 were administered by tail vein and intramuscular injection.
6-week-old female BALB/c mice weighed about 20 g were selected and fed in a SPF-grade feeding room. Animal tests were conducted strictly according to the guidelines of National Health institutions and the requirements of animal ethics.
as §2

The nature of data set [3]: Stability of lipid nanoparticles at 25° C., DLS particle size and PDI. Format: physicochemical. Conditions: for particle size change after four weeks of storage: 25° C., week 4 versus week 0; for particle size: preparation day (week 0). As to the method:
as §3
(§4) Preparation of Lipid Nanoparticles: The Formulation Method 1 was Used to Prepare LNPs for Subcutaneous Administration.
Characterization of lipid nanoparticles: The particle size and PDI of the prepared lipid nanoparticles were measured by Nano-ZSZEN 3600 (Malvern). 40 μL of the LNP solution was taken for particle size measurement with circulation for three times, 30 seconds for each circulation.
(§5) The particle size measurements were carried out on the day of preparation (week 0), and after one week (week 1), two weeks (week 2), and four weeks (week 4) of storage at 25° C., and the expression intensities of Fluc mRNA delivered by subcutaneous administration were determined on the day of preparation (week 0) and after four weeks (week 4).

Data set [4] deals with Fluc mRNA. The data set is described as follows: Stability of lipid nanoparticles at 25° C., subcutaneous expression of Fluc mRNA. Format: in vivo, mice. Conditions: for Fluc expression change after four weeks: 25° C., week 4 versus week 0. As to the method: as §3, §2, §4, §5
The mark [5] stands for this setting: subcutaneous administration, formulation method 1, 0.5 mg/kg.
Setting [6] is: tail vein administration, formulation method 2, 0.5 mg/kg.
Where [7] appears, read: week 0, subcutaneous administration.
Where [8] appears, read: week 4, storage at 25° C., subcutaneous administration.
Setting [9] is: intramuscular injection, formulation method 2, 0.5 mg/kg.

Each structure is given as a SMILES string.

On to `CCCCCCCCCOC(=O)CCCCCCCN(CCCCCCCC(=O)OC(CCCCCCCC)CCCCCCCC)C1CCC(O)C1` (centres unmarked) [Compound 4], for which, in the data set with Fluc mRNA [1], the “Fluorescence intensity (expression intensity of Fluc mRNA)” value (shortened to “Fluorescence intensity”) was determined as 6.7E + 06.

In the case of `CCCCCCCCCOC(=O)CCCCCCCN(CCCCCCCC(=O)OC(CCCCCCCC)CCCCCCCC)C1CCCC(C(=O)NCCCC)C1` (centres unmarked) [Compound 21], in the data set on Fluc mRNA [2] (setting [5]), the “Fluorescence intensity” value is on record as 1.1E + 06.

In the case of `CCCCC/C=C\C/C=C\CCCCCCCCOC(=O)CCCCCCCN(CCCCCCOC(=O)C(CCCCCC)CCCCCCCC)C1CCCC(O)C1` (centres unmarked) [Compound 12], the “Fluorescence intensity” value amounted to 4.2E + 06 with Fluc mRNA [2] (setting [5]) and 6.2E + 06 in the data set with Fluc mRNA [2] (setting [6]).

On to `CCCCCCCCCCCOC(=O)CCCCCN(CCCCCCCC(=O)OC(CCCCCCCC)CCCCCCCC)C1CCC(O)C1` (centres unmarked) [Compound 5], for which the “Fluorescence intensity” value with Fluc mRNA [2] (setting [5]) amounted to 1.4E + 07. In data set [3], the “particle size change after four weeks of storage” value (“particle size change” below) is “did not increase significantly”. For the same compound, the particle size entry in data set [3] is on record as “about 100 nm”. Further, the Z-Average in data set [3] (week 0 (day of preparation)) stood at 105 nm·days; in data set [3] (week 1, storage at 25° C.), 110 nm·days; in data set [3] (week 2, storage at 25° C.), 110 nm·days; in data set [3] (week 4, storage at 25° C.), 115 nm·days. Also, the PDI in data set [3] (week 1, storage at 25° C.) is recorded as 0.05; in data set [3] (week 2, storage at 25° C.), 0.06. The “Fluc expression change after four weeks” value with Fluc mRNA [4] is on record as “did not decrease significantly”. In addition, the “Fluc Expression intensities” value with Fluc mRNA [4] (setting [7]) worked out at 1.4E+07; with Fluc mRNA [4] (setting [8]), 1.1E+07.

In the case of `CCCCCCCCCOC(=O)CCCCCCCN(CCCCCCOC(=O)C(CCCCCC)CCCCCCCC)C1CCCC(O)C1` (centres unmarked) [Compound 9], the “Fluorescence intensity” value stood at 3.7E + 07 in the data set with Fluc mRNA [2] (setting [9]) and 4.2E + 07 in the data set with Fluc mRNA [2] (setting [5]). Moreover, in data set [3], the “particle size change” value is “did not increase significantly”. Also, in data set [3], the particle size entry was “about 100 nm”. The Z-Average in data set [3] (week 0 (day of preparation)) was found to be 115 nm·days; in data set [3] (week 1, storage at 25° C.), 120 nm·days; in data set [3] (week 2, storage at 25° C.), 125 nm·days; in data set [3] (week 4, storage at 25° C.), 125 nm·days. Further, the PDI is listed as 0.03 in data set [3] (week 1, storage at 25° C.) and 0.06 in data set [3] (week 2, storage at 25° C.). Also, in the data set with Fluc mRNA [4], the “Fluc expression change after four weeks” value was “did not decrease significantly”. The “Fluc Expression intensities” value came out at 4.2E+07 with Fluc mRNA [4] (setting [7]) and 3.1E+07 in the data set on Fluc mRNA [4] (setting [8]).

Consider `CCCCCCCCCOC(=O)CCCCCCCN(CCCCCCCC(=O)OC(CCCCCCCC)CCCCCCCC)C1CCCC1O` (centres unmarked) [Comparative compound 1], for which the “Fluorescence intensity” value with Fluc mRNA [1] was 1.7E + 05.

`CCCCCCCCC(CCCCCC)C(=O)OCCCCCCN(CCCCCCOC(=O)C(CCCCCC)CCCCCCCC)C1CCCC(O)C1` (centres unmarked) [Compound 14]: the “Fluorescence intensity” value in the data set with Fluc mRNA [2] (setting [9]) is 8.2E + 06; with Fluc mRNA [2] (setting [6]), 4.1E + 06.

`CCCCCCCCCCCOC(=O)CCCCCN(CCCCCCCC(=O)OC(CCCCCCCC)CCCCCCCC)C1CCC(O)CC1` (centres unmarked) [Comparative compound 7]: in the data set with Fluc mRNA [1], the “Fluorescence intensity” value was determined as 4.5E + 06.

For the compound `CCCCCCCCC(CCCCCC)OC(=O)CCCCCN(CCCCCCOC(=O)C(CCCCCC)CCCCCCCC)C1CCCC(O)C1` (centres unmarked) [Compound 15], the “Fluorescence intensity” value was determined as 1.8E + 07 with Fluc mRNA [2] (setting [9]), 4.7E + 07 with Fluc mRNA [2] (setting [5]) and 3.5E + 06 in the data set on Fluc mRNA [2] (setting [6]).

As for `CCCCCCCCCCCOC(=O)CCCCCCCN(CCCCCCCC(=O)OC(CCCCCCCC)CCCCCCCC)C1CCCC(C#N)C1` (centres unmarked) [Compound 17], in the data set on Fluc mRNA [2] (setting [9]), the “Fluorescence intensity” value came out at 6.2E + 06.

`CCCCCCCCC(CCCCCC)OC(=O)CCCCCN(CCCCCC(=O)OC(CCCCCC)CCCCCCCC)C1CCCCC1O` (centres unmarked) [Comparative compound 4]: the “Fluorescence intensity” value with Fluc mRNA [1] is 1.3E + 05.

For the compound `CCCCCCCCCOC(=O)CCCCCCCN(CCCCCCCC(=O)OC(CCCCCCCC)CCCCCCCC)C1CCCC(O)C1` (centres unmarked) [Compound 6], the “Fluorescence intensity” value in the data set on Fluc mRNA [2] (setting [9]) came out at 1.2E + 08; in the data set with Fluc mRNA [2] (setting [5]), 3.7E + 08; in the data set with Fluc mRNA [2] (setting [6]), 1.7E + 08. The “particle size change” value in data set [3] is recorded as “did not increase significantly”. Moreover, the particle size entry in data set [3] is “about 100 nm”. Also, the Z-Average turned out to be 110 nm·days in data set [3] (week 0 (day of preparation)); 110 nm·days in data set [3] (week 1, storage at 25° C.); 125 nm·days in data set [3] (week 2, storage at 25° C.); 125 nm·days in data set [3] (week 4, storage at 25° C.). The PDI is listed as 0.05 in data set [3] (week 1, storage at 25° C.) and 0.04 in data set [3] (week 2, storage at 25° C.). In addition, the “Fluc expression change after four weeks” value with Fluc mRNA [4] is reported as “did not decrease significantly”. Moreover, the “Fluc Expression intensities” value is reported as 3.7E+08 with Fluc mRNA [4] (setting [7]) and 3.6E+08 in the data set on Fluc mRNA [4] (setting [8]).

As for `CCCCCCCCCOC(=O)CCCCCCCN(CCCCCCCC(=O)OC(CCCCCCCC)CCCCCCCC)C1CC(O)C1` (centres unmarked) [Compound 1], the “Fluorescence intensity” value in the data set on Fluc mRNA [2] (setting [5]) worked out at 2.7E + 07.

In the case of `CCCCCCCCCCCOC(=O)CCCCCN(CCCCCCCC(=O)OC(CCCCCCCC)CCCCCCCC)C1CCCCC1O` (centres unmarked) [Comparative compound 3], the “Fluorescence intensity” value in the data set with Fluc mRNA [1] turned out to be 2.9E + 05.

Consider `CCCCCCCCCOC(=O)CCCCCCCN(CCCCCCCC(=O)OC(CCCCCCCC)CCCCCCCC)C1CCCC(F)C1` (centres unmarked) [Compound 18], for which the “Fluorescence intensity” value in the data set on Fluc mRNA [2] (setting [9]) is on record as 7.8E + 06.

Consider `CCCCCCCCC(CCCCCC)OC(=O)CCCCCN(CCCCCC(=O)OC(CCCCCC)CCCCCCCC)C1CCC(O)CC1` (centres unmarked) [Comparative compound 8], for which, in the data set on Fluc mRNA [1], the “Fluorescence intensity” value is reported as 2.1E + 06.

Take `CCCCCCCCCOC(=O)CCCCCCCN(CCCCCCCC(=O)OC(CCCCCCCC)CCCCCCCC)C1CCC(O)CC1` (centres unmarked) [Comparative compound 6]: the “Fluorescence intensity” value in the data set on Fluc mRNA [1] is 1.9E + 07; in the data set on Fluc mRNA [1] (listed as comparative compound 6) it was 1.9E+07.

`CCCCCCCCC(CCCCCC)OC(=O)CCCCCN(CCCCCC(=O)OC(CCCCCC)CCCCCCCC)C1CCCC(O)C1` (centres unmarked) [Compound 8]: the “Fluorescence intensity” value is 9.2E + 06 in the data set with Fluc mRNA [2] (setting [9]), 5.1E + 06 in the data set on Fluc mRNA [2] (setting [6]) and 9.2E + 06 in the data set on Fluc mRNA [1].

Consider `CCCCCCCCCOC(=O)CCCCCCCN(CCCCCCCC(=O)OC(CCCCCCCC)CCCCCCCC)C1CCCC(OC)C1` (centres unmarked) [Compound 16], for which the “Fluorescence intensity” value in the data set on Fluc mRNA [2] (setting [5]) is 1.3E + 06.

These data come from patent US20260015311A1, “AMINO LIPID COMPOUND, PREPARATION METHOD THEREFOR, AND USE THEREOF” (SHENZHEN SHENXIN BIOTECHNOLOGY CO., LTD., priority 2022, published 2026).
